# Assays:
# [1] = tested on: rat carrageenan paw edema; assay: rat carrageenan paw edema assay; assay type: in vivo, rat (male Sprague-Dawley); details: for ED50: Rattus norvegicus, po, 3 h, read-out: Oral ED50 (95% C.L.); for % Inhibition of edema at 50 mg/kg (peroral): 1 hour prior to carrageenan, edema at 3 hours
# Procedure: The compounds of the invention are tested in the rat carrageenan paw edema assay to determine their ability to inhibit the acute inflammatory response. This assay is carried out as follows: 140-180 gm male Sprague-Dawley rats, in groups of 6 animals, are injected subcutaneously in the right paw with 0.1 ml of 1% carrageenan at zero time. Mercury plethysmographic readings (ml) of the paw are made at zero time and 3 hours later. Test compounds are suspended or dissolved in 0.5% methylcellulose and given perorally 1 hour prior to carrageenan administration. The increase in paw volume (edema in ml.) produced by the carrageenan is measured. […] Unpaired Student's t-test is used to determine statistical significance.
# [2] = tested on: IL 1-induced release of neutral protease from rabbit articular chondrocytes; assay: inhibition of IL 1-induced release of neutral protease from rabbit articular chondrocytes (azocoll neutral protease assay); assay type: cell-based; details: Oryctolagus cuniculus, Chondrocyte, human IL 1, 24 h, ± S.D., read-out: % Inhibition of Protease Secretion
# Procedure: The ability of the compounds of the inventions to inhibit interleukin 1 is measured by the ability of the test compounds to inhibit the IL 1-induced release of neutral protease from rabbit articular chondrocytes.
# This assay is carried out as follows:
# Isolation of rabbit chondrocytes:
# Male New Zealand White rabbits are anesthetized with 50 mg/kg of ketamine (i.m.) and killed by an intracardiac injection of 3 mls. of Nembutal. The knee joints of both legs are resected and the articular surfaces are exposed. Cartilage slices are obtained using a scalpel and are placed in a tissue culture dish (100 mm diameter) containing 10 mls of Hank's balanced salt solution (HBSS). The chondrocytes within the cartilage slices are then liberated by a series of enzyme digestions. The slices are incubated for 10 min. at 37° C. in 0.05% hyaluronidase (Sigma H-3884), rinsed with HBSS and incubated with 0.2% trypsin (Sigma T-2395) for 10 min. at 37° C. The slices are rinsed again and incubated for 10 mins. at 37° C. with 1.2% collagenase (Sigma C-5138). The slices are then rinsed again with HBSS and resuspended in 10 ml of Ham's F-12 medium containing 10% fetal bovine calf serum (FCS) and 0.2 % collagenase and incubated overnight at 37° C. in a 5% CO2 incubator. The next day, the medium containing the digested cartilage fragments and liberated chondrocytes is transferred to a 15 ml centrifuge tube and the cells are collected by centrifugation and washed twice and resuspended in Ham's F-12 medium. The cells are then plated into 24-well tissue culture plates (2×10^5 cells/well) and incubated at 37° C. until confluent (usually 4-6 days).
# Stimulation of chondrocytes and drug treatment:
# The confluent chondrocytes are rinsed twice with serum-free Ham's F-12 medium and 1 ml is added to each well. Fifty μl of purified human IL 1 (100 Units/ml; Genzyme Corporation, Boston, MA) is then added to stimulate these cells to secrete neutral protease. To measure drug effects, the cells are treated with test compound 10 min. prior to addition of IL 1. The standard screening dose is 10 μM. Twenty-four hours after IL 1 stimulation, supernatant fluids are collected and assayed for neutral protease activity.
# The neutral protease activity of chondrocyte supernatant fluids is determined by their ability to degrade an insoluble protease substrate, azocoll (Sigma). Supernatants are treated for 10 min. at room temperature with 350 μM p-aminophenylmurcuric acetate to activate the latent enzyme. Three hundred μl of supernatant is then mixed with 500 μl of a 20 mg/ml suspension of azocoll and incubated at 37° C. for 18-24 hrs. with gentle rocking. The mixtures are centrifuged and the amount of substrate hydrolyzed is determined by measuring the absorbance of the supernatant at 520 nm.
# Drug effects are calculated as the % change in enzyme activity (absorbance)by supernatants from drug-treated chondrocytes relative to enzyme activity of supernatants from vehicle-treated chondrocytes as follows:
# % Inhibition of Protease Secretion= [formula]
smiles,measurement,setting,value
"CC(=O)Oc1ccccc1C(=O)O [Aspirin, reference compound]",ED50,[1],145 mg/kg
"N#Cc1ccc(NCCc2nc3cc(Cl)ccc3c3nn(-c4ccccc4)cc23)cc1 [Example 1, 4-[[2-(7-Chloro-2-phenyl-2H-pyrazolo-[4,3-c]quinolin-4-yl)ethyl]amino]benzonitrile]",inhibition at 0.1 µM,[2],60 ± 13%
same,inhibition at 1 µM,[2],75 ± 5%
same,inhibition at 10 µM,[2],88 ± 2%
same,% Inhibition of edema at 50 mg/kg (peroral),[1],38%
"CCOC(=O)c1ccc(NCCc2nc3cc(Cl)ccc3c3nn(-c4ccccc4)cc23)cc1 [Example 2, 4-[[2-(7-Chloro-2-phenyl-2H-pyrazolo[4,3-c]quinolin-4-yl)ethyl]amino]benzoic acid ethyl ester]",inhibition at 0.1 µM,[2],41 ± 10%
same,inhibition at 1 µM,[2],70 ± 4%
same,inhibition at 10 µM,[2],85 ± 3%
same,% Inhibition of edema at 50 mg/kg (peroral),[1],32%
"Clc1ccc2c(c1)nc(CCNc1ncccn1)c1cn(-c3ccccc3)nc12 [Example 3, 7-Chloro-2-phenyl-N-(2-pyrimidinyl)-2H-pyrazolo[4,3-c]quinoline-4-ethanamine]",inhibition at 1 µM,[2],22%
same,inhibition at 10 µM,[2],79 ± 29%
"Clc1ccc2c(c1)nc(CCNc1ccc3ccccc3n1)c1cn(-c3ccccc3)nc12 [Example 4, 7-Chloro-2-phenyl-N-(2-quinolinyl)-2H-pyrazolo[4,3-c]quinoline-4-ethanamine]",inhibition at 10 µM,[2],≤ 20%
"Fc1ccc(NCCc2nc3cc(Cl)ccc3c3nn(-c4ccccc4)cc23)cc1 [Example 5, 7-Chloro-N-(4-fluorophenyl)-2-phenyl-2H-pyrazolo[4,3-c]quinoline-4-ethanamine]",inhibition at 10 µM,[2],14%
"Clc1ccc2c(c1)nc(CCNc1cnccn1)c1cn(-c3ccccc3)nc12 [Example 6, 7-Chloro-2-phenyl-N-(2-pyrazinyl)-2H-pyrazolo-[4,3-c]quinoline-4-ethanamine, hemihydrate]",inhibition at 10 µM,[2],60%
"CCOC(=O)c1ccc(NCCc2nc3ccccc3c3nn(-c4ccccc4)cc23)cc1 [Example 7, 4-[[2-(2-phenyl-2H-pyrazolo[4,3-c]quinolin-4-yl)ethyl]amino]benzoic acid ethyl ester]",inhibition at 10 µM,[2],83%
"N#Cc1ccc(N(CCc2nc3cc(Cl)ccc3c3nn(-c4ccccc4)cc23)C(=O)Nc2ccccc2)cc1 [Example 8, N-[2-(7-chloro-2-phenyl-2H-pyrazolo[4,3-c]quinolin-4-yl)ethyl]-N-(4-cyanophenyl)-N'-phenylurea]",inhibition at 10 µM,[2],≤ 20%
CCOC(=O)c1ccc(N(CCc2nc3cc(Cl)ccc3c3nn(-c4ccccc4)cc23)C(=O)Nc2ccccc2)cc1 [Example 9],inhibition at 10 µM,[2],49%
"N#Cc1ccc(N(CCc2nc3cc(Cl)ccc3c3nn(-c4ccccc4)cc23)C(=O)Nc2ccc(Cl)cc2)cc1 [Example 10, N'-(4-Chlorophenyl)-N-[2-(7-chloro-2-phenyl-2H-pyrazolo[4,3-c]quinolin-4-yl)ethyl]-N-(4-cyanophenyl)urea]",inhibition at 10 µM,[2],51%
"CCOC(=O)c1ccc(N(CCc2nc3cc(Cl)ccc3c3nn(-c4ccccc4)cc23)C(=O)Nc2ccc(Cl)cc2)cc1 [Example 11, 4-[[[(4-chlorophenyl)amino]carbonyl][2-(7-chloro-2-phenyl-2H-pyrazolo[4,3-c]quinolin-4-yl)ethyl]amino]benzoic acid ethyl ester, hydrate]",inhibition at 10 µM,[2],47%
"CS(=O)(=O)c1ccc(NCCc2nc3cc(Cl)ccc3c3nn(-c4ccccc4)cc23)cc1 [Example 12, 7-Chloro-N-[(4-methylsulfonyl)phenyl]-2-phenyl-2H-pyrazolo[4,3-c]quinoline-4-ethanamine]",inhibition at 10 µM,[2],41%
"COc1ccc2c(c1)c(CC(=O)O)c(C)n2C(=O)c1ccc(Cl)cc1 [Indomethacin, reference compound]",ED50,[1],3.7 mg/kg

# From patent US4748246A, “Pyrazolo(4,3-c)quinolines” (American Home Products Corporation, priority 1987, dated 1988)
